Results reported in patent publication US6348477B1, “Anti-herpesvirus compounds and methods for identifying, making and using same” (Boehringer Ingelheim(Canada) Ltd., priority 1995, dated 2002).

What was measured:
[1] = tested on: HCMV (strain AD169); test: Inhibition of HCMV replication, plaque reduction assay (PRA, Hs-68 cells); type: cell-based, human cytomegalovirus; conditions: Human betaherpesvirus 5, AD169, Hs68; Group 1 Table 1; read-out: PRA CMV EC50
In short: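 Hs-68 cells infected with about 50 PFU HCMV AD169 (2 h adsorption, 37°), then incubated with compound in 5% inactivated-FBS medium for 4 days, refed with fresh compound, 4 more days. Crystal violet-stained plaques counted; EC50 from percent plaque reduction versus untreated.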

[2] = tested on: HSV-1 strain F or KOS; test: Inhibition of herpes simplex virus (HSV-1) replication in cell culture (BHK-21 cells, glycoprotein C ELISA); type: cell-based; conditions: Human alphaherpesvirus 1, BHK-21; Group 1 Table 1
Description: B) Inhibition of Herpes Simplex Virus (HSV-1) Replication in Cell Culture
Assay: BHK-21 cells clone 13 (ATCC CCL10) were incubated for two days in 850 cm^2 roller bottles (2×10^7 cells/bottle) with α-MEM medium (Gibco Canada Inc., Burlington, Ontario, Canada) supplemented with 8% (v/v) fetal bovine serum (FBS, Gibco Canada, Inc.). The cells were trypsinized and then 3,000 cells in 100 μL of fresh medium were transferred into each well of a 96-well microtiter plate. The cells were incubated at 37° for a period of 3 days to reach a density of 50,000 cells per well. The cells were washed twice with 100 μL of α-MEM supplemented with 2% heat inactivated FBS and incubated for 1-2 hours in 100 μL of the same medium.
Thereafter, the cells were infected with HSV-1 strain F or KOS (multiplicity of infection=0.05 PFU/cell) in 50 μL of α-MEM supplemented with 2% heat inactivated FBS. Following one hour of virus absorption at 37°, the medium was removed and the cells were washed with α-MEM supplemented with 2% heat inactivated FBS (2×100 μL). The cells were incubated with or without 100 μL of the appropriate concentration of test reagent in α-MEM medium supplemented with 2% heat inactivated FBS. After 24 hours of incubation at 37°, the extent of viral replication was determined by an ELISA assay; for instance, the following assay that detects the late glycoprotein C of HSV-1.
Cells were fixed in the microtiter plate with 100 μL of 0.063% glutaraldehyde in phosphate buffered saline for 30 min at room temperature. The microtiter plate was then washed once with casein blocking solution and blocked with 200 μL of the same solution for one hour at room temperature. Thereafter, 100 μL of mAb C11 recognizing the glycoprotein C of HSV-1 (see E. Trybala et al., Journal of General Virology, 1994, 75, 743) was added to each well for two hours at room temperature. The plate was washed three times with phosphate buffered saline containing 0.05% polyoxyethylene (20) sorbitan monooleate. The cells were incubated with 100 μL of sheep anti-mouse IgG horseradish peroxidase for one hour at room temperature in the dark.
The plate was washed three times with 200 μL of the above-noted phosphate buffer saline preparation, and then once with 0.1 M sodium citrate (pH 4.5). Thereafter, 100 μL of orthophenylenediamine dihydrochloride (OPD, Gibco, Canada Inc.) was added to each well. The plate was agitated on a microplate shaker for 30 min in the dark. Color development was monitored at 450 nm using a microplate spectrophotometer.
SAS was used to calculate % inhibition of viral replication and to generate EC50 values.

EC50 [1]: 93 µM | EC50 [2]: 0.21 µM
SMILES: Nc1nc(-c2ccc(NC(=O)CN(CCc3ccccc3)C(=O)c3cccnc3)cc2)cs1 [Example 67]
